In paper PMC10458253, “Unraveling the In Vitro Toxicity Profile of Psychedelic 2C Phenethylamines and Their N-Benzylphenethylamine (NBOMe) Analogues” (Pharmaceuticals, 2023):

Assays:
[1] = tested on: differentiated SH-SY5Y cells; test: Effect of MAO inhibitors on drug cytotoxicity (neutral red uptake), differentiated SH-SY5Y; type: cell-based; details: 24 h
Protocol: MAO inhibition was used to elucidate the impact of MAO-A and MAO-B in the cytotoxicity of the tested drugs. […] The drugs’ cytotoxicity was then assessed through the neutral red uptake assay and the results were expressed as percentage of control cells. At least four independent experiments were performed, in triplicate.

[2] = Chromatographic Hydrophobicity Index (CHI) by HPLC, CHILogD7.4; details: pH 7.4
Protocol: The CHI values at pH 7.4 were determined using an experimental protocol described elsewhere [23, 25]. The CHI values were assessed from experimental retention times (tR) of the compounds under study and a mixture of reference compounds obtained on the HPLC system with a Luna C18 (2) column (150 × 4.6 mm, 5 µm, Phenomenex, CA, USA). […] Mobile phase A was 10 mM ammonium acetate (pH 7.4) and mobile phase B was acetonitrile. The following gradient program was applied: 0–7 min 0–100% B, 7–15 min 100% B, 15–17 min 100–0% B. The flow was 1 mL/min, and the injection volume was 40 μL.

[3] = tested on: differentiated SH-SY5Y cells; test: Effect of CYP inhibitors on drug cytotoxicity (neutral red uptake), differentiated SH-SY5Y; type: cell-based; details: 24 h, drug concentrations as given in the source
Protocol: Differentiated SH-SY5Y cells were incubated with the drugs in the presence or absence of different CYP inhibitors: 1000 μM ABT, a non-selective CYP inhibitor, 10 μM quinidine, a specific CYP2D6 inhibitor, or 10 μM ketoconazole, a specific CYP3A4 inhibitor.
(§1) CYP inhibition assay was used to evaluate the drugs’ potential to inhibit drug-metabolizing enzymes. Accordingly, SH-SY5Y and HepG2 cells were seeded in 96-well cell culture plates and pre-incubated with 1000 µM ABT—a non-isoform specific CYP450 inhibitor, 10 µM quinidine—a CYP2D6 inhibitor or 1 µM ketoconazole—a CYP3A4 inhibitor. After 1 h, the drugs (0–500 µM) were co-incubated with the inhibitors for 24 h, at 37 °C, in a 5% CO2–95% air atmosphere. The drugs’ cytotoxicity was then assessed through the neutral red uptake assay for differentiated SH-SY5Y cells, and through the resazurin reduction assay for HepG2 cells, and the results were expressed as percentage of control cells. At least four independent experiments were performed, in triplicate.

[4] = tested on: HepG2 cells; test: Effect of CYP inhibitors on drug cytotoxicity (resazurin reduction), HepG2; type: cell-based; details: HepG2, 24 h, drug concentrations as given in the source
Protocol: Analogously to the studies performed in the neuronal model, the impact of the CYP-mediated metabolism on the cytotoxicity of the tested drugs was also evaluated, in HepG2 cells, 24 h after exposure to the drugs in the presence or absence of different CYP inhibitors: 1000 μM ABT, 10 μM quinidine or 1 μM ketoconazole.
as §1

[5] = tested on: differentiated SH-SY5Y cells; test: Resazurin reduction cytotoxicity assay, differentiated SH-SY5Y; type: cell-based; details: 24 h
Protocol: (§2) SH-SY5Y cells were acquired from the American Type Culture Collection (Manassas, VA, USA). Cells were cultured in 25 cm^2 flasks using DMEM—high glucose supplemented with 10% heat-inactivated FBS, 1% MEM non-essential amino acids and 1% penicillin/streptomycin mixture, and maintained in a 5% CO2–95% air atmosphere, at 37 °C, until 80% confluence. Cells were routinely subcultured using trypsin-EDTA and, to avoid phenotypic alterations, were always used between passages 23 and 29. In all experiments, the cells were seeded at a density of 25,000 cells/cm^2. As previously described, to achieve a dopaminergic neuronal phenotype, the cells were seeded in a complete DMEM medium containing 10 μM retinoic acid and, after 3 days, 80 nM TPA was added to the cultures for another 3 days.
(§3) Neutral red uptake and resazurin reduction assays were performed after exposure of differentiated SH-SY5Y and HepG2 cells to the drugs under study. To obtain a concentration–response curve, a broad concentration range (0–2000 µM) was investigated, and cytotoxicity was evaluated 24 h after exposure in 96-well cell culture plates. As previously described, neutral red uptake assay is based on the incorporation of neutral red dye into the lysosomes of viable cells and the amount of dye incorporated represents the cells’ lysosomal functionality, and resazurin reduction assay is based on the irreversible reduction of resazurin dye to the fluorescent resorufin product by metabolically active cells.
(§4) Briefly, 24 h after being exposed to different concentrations of the compounds, differentiated SH-SY5Y cells were incubated with either neutral red (50 µg/mL) or resazurin (10 µg/mL) solutions for 90 min, at 37 °C, in a 5% CO2–95% air atmosphere. For HepG2 cells, 24 h after the exposure to the tested drugs, the cells were incubated with either neutral red (50 µg/mL) or resazurin (10 µg/mL) solutions for 45 and 60 min, respectively, at 37 °C, in a 5% CO2–95% air atmosphere.
(§5) In the neutral red uptake assay, at the end of the incubation period, the cell culture medium was removed and a solution of absolute ethyl alcohol/distilled water (1:1) with 5% acetic acid was added to extract the dye absorbed only by the viable cells. The absorbance was measured at 540 nm in a multi-well plate reader (PowerWaveX BioTek Instruments, Winooski, VT, USA). In the resazurin assay, at the end of the incubation period, the fluorescence was measured at 530 nm excitation and 590 nm emission wavelengths in a multi-well plate reader (PowerWaveX BioTek Instruments, Winooski, VT, USA).
(§6) The results were expressed as a percentage of control cells. At least four independent experiments were performed, in triplicate. For differentiated SH-SY5Y cells, the neutral red uptake assay was identified as the most sensitive assay and, therefore, used for the subsequent experiments. On the other hand, for HepG2 cells, the resazurin reduction assay was identified as the most sensitive assay and, therefore, used for the subsequent experiments.

[6] = CHI on Immobilized Artificial Membrane (IAM) HPLC, Kpcell; type: physicochemical; details: partition between internal and external cellular media; estimated from experimental CHI(IAM)
Protocol: The CHI on IAM (CHI (IAM)) values were determined from the experimental tR obtained on the HPLC system with an IAM.PC.DD2 column (100 × 4.6 mm, 10 µm, Regis Technologies, Inc., Morton Grove, IL, USA). […] The Log Kpcell (partition between internal and external cellular media) values were estimated from the drugs’ experimental CHI IAM values using Equations (2) and (3) described elsewhere. Log kIAM = 0.046 CHI(IAM) + 0.42(2) Log Kpcell = 1.1 Log kIAM(3)

[7] = tested on: differentiated SH-SY5Y cells; test: Neutral red uptake cytotoxicity assay, differentiated SH-SY5Y; type: cell-based; details: 24 h
Protocol: as §2, §3, §4, §5, §6

[8] = PAMPA-BBB permeability assay
Text: In the present study we used a Parallel Artificial Membrane Permeation Assay (PAMPA) with a membrane mimicking the BBB phospholipidic composition (PAMPA-BBB) to evaluate and predict passive, transcellular permeability of the mescaline-NBOMe, 25B-NBOMe and 25N-NBOMe drugs.
The PiON inc database software was used for data analysis.

[9] = maximum cell death of fitted curve
[10] = Homo sapiens, cell death curves 0–1500 µM, read-out: EC50 (half-maximum-effect concentration)

SMILES: COc1cc([N+](=O)[O-])c(OC)cc1CCNCc1ccccc1OC [25N-NBOMe, 4-Nitro-2-dimethoxy-N-(2-methoxybenzyl)-β-phenethylamine]
- change of drug cytotoxicity with clorgyline (neutral red uptake) ([1]; 1 µM clorgyline (MAO-A inhibitor), drug 50-250 µM): significantly increased the cytotoxicity
- change of drug cytotoxicity with rasagiline (neutral red uptake) ([1]; 1 µM rasagiline (MAO-B inhibitor), drug concentrations as given in the source): significant increase in cell viability
- chromatographic logD [2]: 1.96
- change of neutral red uptake with ketoconazole vs drug alone ([3]; 10 μM ketoconazole (CYP3A4 inhibitor)): small but significant decrease in neutral red uptake
- change of neutral red uptake with quinidine vs drug alone ([3]; 10 μM quinidine (CYP2D6 inhibitor)): significant decrease in the neutral red uptake
- change of neutral red uptake with ABT vs drug alone ([3]; 1000 μM ABT (non-selective CYP inhibitor)): significant decrease in neutral red uptake
- change of resazurin reduction with ketoconazole vs drug alone ([4]; 1 μM ketoconazole): no significant changes in resazurin reduction
- change of resazurin reduction with quinidine vs drug alone ([4]; 10 μM quinidine): no significant changes in resazurin reduction
- change of resazurin reduction with ABT vs drug alone ([4]; 1000 μM ABT): small but significant decrease in resazurin reduction
- Bottom (baseline) [5]: 0.9223
- Hill Slope [5]: 4.692
- Top (maximal effect) [5, 9]: 80.10
- EC50 [5, 10]: 154 µM
- Kpcell [6]: 5.05
- Bottom (baseline) [7]: 2.841
- Hill Slope [7]: 5.758
- Top (maximal effect) [7, 9]: 87.38
- EC50 [7, 10]: 125 µM
- −Log Pe ± SD [8]: 4.6 ± 0.34
